{"source": "paper PMC3522796", "about": "(Cancer letters, 2012)", "key": {"[1]": {"biological_target": "tubulin (Sus scrofa, UniProt P02554)", "sequence (P02554 whole entry)": "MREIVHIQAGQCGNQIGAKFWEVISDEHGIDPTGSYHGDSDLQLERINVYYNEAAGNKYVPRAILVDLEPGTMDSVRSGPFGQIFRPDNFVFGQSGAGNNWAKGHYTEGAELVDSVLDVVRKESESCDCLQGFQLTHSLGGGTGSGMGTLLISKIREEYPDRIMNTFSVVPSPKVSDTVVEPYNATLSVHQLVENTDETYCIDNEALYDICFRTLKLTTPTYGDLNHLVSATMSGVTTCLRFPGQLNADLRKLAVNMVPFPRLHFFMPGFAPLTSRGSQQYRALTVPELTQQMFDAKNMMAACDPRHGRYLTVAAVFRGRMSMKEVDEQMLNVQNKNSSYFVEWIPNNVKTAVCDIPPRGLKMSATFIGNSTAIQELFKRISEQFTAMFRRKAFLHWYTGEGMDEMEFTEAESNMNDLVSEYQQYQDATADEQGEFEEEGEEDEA", "sequence (P02550 whole entry partner)": "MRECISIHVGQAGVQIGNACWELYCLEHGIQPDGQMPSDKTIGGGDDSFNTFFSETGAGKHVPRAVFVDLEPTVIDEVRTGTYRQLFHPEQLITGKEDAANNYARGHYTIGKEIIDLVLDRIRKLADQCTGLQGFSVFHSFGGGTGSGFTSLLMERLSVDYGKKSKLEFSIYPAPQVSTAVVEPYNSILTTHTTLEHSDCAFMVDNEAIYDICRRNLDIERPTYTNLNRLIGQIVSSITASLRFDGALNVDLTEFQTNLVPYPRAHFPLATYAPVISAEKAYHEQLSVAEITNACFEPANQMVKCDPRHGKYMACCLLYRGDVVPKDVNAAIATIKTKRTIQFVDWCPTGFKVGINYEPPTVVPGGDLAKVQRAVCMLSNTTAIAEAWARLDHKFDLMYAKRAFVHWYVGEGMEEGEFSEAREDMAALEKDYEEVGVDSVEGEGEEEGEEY", "assay": "Tubulin polymerization assay", "type": "biochemical"}, "[2]": {"test_system": "4T1 mouse mammary carcinoma cells", "assay": "In-vitro cytotoxicity, MTT assay", "type": "cell-based"}, "[3]": {"test_system": "microtubule", "conditions": "cited from earlier work; for Microtubule assembly: 10 µM"}, "[4]": {"test_system": "HeLa cells", "conditions": "cited from earlier work"}, "[5]": {"conditions": "rabbit model; cited from earlier work"}, "[6]": {"test_system": "human MCF-7 cells", "conditions": "72 h incubation; cited from earlier work"}, "[7]": {"test_system": "mice", "conditions": "cited from earlier work"}, "[8]": {"test_system": "M109 subcutaneous lung tumor", "conditions": "cited from earlier work; for Antitumor efficacy: at MTD; for Tumor AUC of PX fold greater than Taxol: i.v."}, "[9]": {"test_system": "human tumor cell lines", "conditions": "variety of human tumor cell lines; cited from earlier work"}, "[10]": {"test_system": "metastatic malignant melanoma", "conditions": "Phase III, every 3-week treatment schedule; cited from earlier work"}, "[11]": {"test_system": "P-glycoprotein (P-gp)", "conditions": "cited from earlier work"}}, "note": "Entries after “also recorded” stand apart in the source; their conditions may differ. Read-outs that look alike come from different tables or passages of the source.", "data": [{"compound": "2’-behenoyl-paclitaxel [Formulation C22-PX]", "values": [{"measurement": "Effect on tubulin polymerization", "setting": "[1]; 5 µM, compared to control", "value": "no effect on tubulin polymerization"}, {"measurement": "Effect on tubulin polymerization", "setting": "[1]; 10 µM, compared to control", "value": "no effect on tubulin polymerization; also recorded: no microtubule activity"}, {"measurement": "Effect on tubulin polymerization", "setting": "[1]; 20 µM, compared to control (p < 0.01)", "value": "some tubulin polymerization activity"}, {"measurement": "IC50 fold higher than PX", "setting": "[2]; 4T1 cells", "value": "about 8 fold"}, {"measurement": "IC50", "setting": "[2]; 4T1 cells, MTT, 48 h", "value": "0.282 ± 0.042", "unit": "µM"}]}, {"compound": "CCCCCC=CCC=CCCCCCCCC(=O)OC(C(=O)OC1CC2(O)C(OC(=O)c3ccccc3)C3C4(OC(C)=O)COC4CC(O)C3(C)C(=O)C(OC(C)=O)C(=C1C)C2(C)C)C(NC(=O)c1ccccc1)c1ccccc1", "note": "(stereo not drawn) [2’-linoleic acid-PX]", "values": [{"measurement": "Microtubule assembly", "setting": "[3]", "value": "not able to assemble microtubule"}]}, {"compound": "CCCCCCCCC=CCCCCCCCC(=O)OC(C(=O)OC1CC2(O)C(OC(=O)c3ccccc3)C3C4(OC(C)=O)COC4CC(O)C3(C)C(=O)C(OC(C)=O)C(=C1C)C2(C)C)C(NC(=O)c1ccccc1)c1ccccc1", "note": "(stereo not drawn) [2’-oleate-PX]", "values": [{"measurement": "IC50", "setting": "[4]; 24 h incubation, in lipid emulsions", "value": 5.5, "unit": "µM"}, {"measurement": "IC50", "setting": "[4]; 48 h incubation", "value": 0.5, "unit": "µM"}, {"measurement": "IC50", "setting": "[4]; 72 h incubation, in lipid emulsions", "value": 0.15, "unit": "µM"}, {"measurement": "IC50", "setting": "[4]; 96 h incubation, in lipid emulsions", "value": 0.1, "unit": "µM"}, {"measurement": "Pharmacokinetics compared to PX formulated in Cremophor EL/Ethanol", "setting": "[5]", "value": "significantly greater AUC, higher Cmax, and lower systemic clearance"}]}, {"compound": "CCCCCCCCCCCCCCC(Br)C(=O)OC(C(=O)OC1CC2(O)C(OC(=O)c3ccccc3)C3C4(OC(C)=O)COC4CC(O)C3(C)C(=O)C(OC(C)=O)C(=C1C)C2(C)C)C(NC(=O)c1ccccc1)c1ccccc1", "note": "(stereo not drawn) [2’-α-bromohexadecanoyl-PX]", "values": [{"measurement": "Fold less potent compared to PX", "setting": "[6]", "value": 70, "unit": "fold"}]}, {"compound": "CC/C=C\\C/C=C\\C/C=C\\C/C=C\\C/C=C\\C/C=C/CCC(=O)O[C@@H](C(=O)O[C@H]1C[C@@]2(O)[C@@H](OC(=O)c3ccccc3)C3[C@](C)(C(=O)[C@H](OC(C)=O)C(=C1C)C2(C)C)[C@@H](O)C[C@H]1OC[C@@]31OC(C)=O)[C@@H](NC(=O)c1ccccc1)c1ccccc1", "note": "(stereo partly drawn) [DHA-PX, docosahexaenoic acid-PX]", "values": [{"measurement": "MTD fold higher compared to Taxol", "setting": "[7]", "value": 4.4, "unit": "fold"}, {"measurement": "Antitumor efficacy", "setting": "[8]", "value": "completely eliminated measurable tumors"}, {"measurement": "Tumor AUC of PX fold greater than Taxol", "setting": "[8]; equimolar dose", "value": 1.71, "unit": "fold"}, {"measurement": "Tumor AUC of PX fold greater than Taxol", "setting": "[8]; equitoxic dose", "value": 5.79, "unit": "fold"}, {"measurement": "Microtubule assembly", "setting": "[3]", "value": "not able to assemble microtubule"}, {"measurement": "Microtubule assembly activity", "setting": "[3]", "value": "does not have microtubule assembly activity"}, {"measurement": "Cytotoxic concentration range", "setting": "[9]", "value": "µM concentration range"}, {"measurement": "Overall survival", "setting": "[10]", "value": "not superior to dacarbazine"}, {"measurement": "P-gp substrate", "setting": "[11]", "value": "remains a P-gp substrate"}]}, {"compound": "CC(=O)O[C@H]1C(=O)[C@@]2(C)[C@H]([C@H](OC(=O)c3ccccc3)[C@]3(O)C[C@H](OC(=O)[C@H](O)[C@@H](NC(=O)c4ccccc4)c4ccccc4)C(C)=C1C3(C)C)[C@]1(OC(C)=O)CO[C@@H]1C[C@@H]2O", "note": "[PX, Paclitaxel]", "values": [{"measurement": "Vmax of tubulin polymerization", "setting": "[1]; 10 µM, 37°C, 3 mg/ml tubulin, standard control 25.3 ± 3.2", "value": "45.0 ± 3.6", "unit": "mOD/min"}, {"measurement": "Effect on tubulin polymerization", "setting": "[1]; 10 µM, compared to control", "value": "could stabilize microtubule proteins"}, {"measurement": "IC50", "setting": "[2]; Mus musculus, 4T1, 48 h", "value": "0.038 ± 0.001", "unit": "µM"}, {"measurement": "Antitumor efficacy", "setting": "[8]", "value": "did not result in even partial tumor regression"}, {"measurement": "Cytotoxic concentration range", "setting": "[9]", "value": "nM range"}, {"measurement": "P-gp substrate", "setting": "[11]", "value": "substrate of P-glycoprotein"}]}]}
